Test results reported in patent US20210244704A1, “Cabazitaxel in mCRPC Patients Previously Treated with Docetaxel and Who Failed a Prior androgen signaling targeted inhibitor Agent” (SANOFI MATURE IP, priority 2019, published 2021).
Marks after values point to notes of the source that are not given here.

System: HRQL of mCRPC patients
Experiment: Same clinical study: health-related quality of life, FACT-P questionnaire
Type: in vivo, human
Procedure: Pain response was defined as a decrease≥30% from baseline in BPI-SF pain intensity score with no increased analgesic use. HRQL was assessed using the Functional Assessment of Cancer Therapy-Prostate (FACT-P) questionnaire. Pain intensity was defined using item 3 of the validated Brief Pain Inventory-Short Form (BPI-SF), which rates pain at its worst in the last 24 hours on a scale of 0 (no pain) to 10 (worst imaginable pain). Analgesic consumption was reported by local investigators and coded by the World Health Organization's analgesic ladder (0=no analgesic; 1=non-opioid analgesics; 2=opioid analgesics for moderate pain; 3=opioids for severe pain). […] A clinically meaningful improvement or deterioration of total FACT-P score was defined as a difference of ±10 points from baseline. Clinically meaningful changes in HRQL and pain response were confirmed at two consecutive evaluations≥3 weeks apart during the on-treatment period. Survival curves were generated by Kaplan-Meier estimates.
Time to deterioration was defined on two consecutive evaluations, ≥3 weeks apart as follows: • decrease of ≥10 points from baseline for FACT-P total score • decrease of ≥3 points from baseline for physical, social, emotional and functional well-being • decrease of ≥2 points from baseline for the pain PCS subscale • decrease of ≥9 points from baseline for FACT-G total and FACT-P TOI subscales
FACT-P, a validated 39-item questionnaire evaluated 5 wellbeing domains: physical (PWB, 0-28), social and family (SWB, 0-28), emotional (EWB, 0-24), functional (FWB, 0-28), and prostate specific (PCS, 0-48).
Total FACT-P score (PWB+SWB+EWB+FWB+PCS; 0-156), total FACT-G score (PWB+SWB+EWB+FWB; 0-108), FACT-P trial outcome index (PWB+FWB+PCS; 0-104), and PCS-Pain were calculated. The FACT-P overall score ranges from 0 to 156, higher values indicating a higher HRQL
To control for type I error due to multiple comparisons, a hierarchical testing procedure was applied for the primary and key secondary end points. […] Further tests were stopped once a comparison was found not statistically significant at two-sided alpha level of 0.05. Descriptive statistics for FACT-P and EQ-5D-5L scores were provided for all cycles for which the number of evaluable patients reached ≥20% of the PRO population. For qualitative parameters, proportions of patients with deterioration, no change, and improvement were provided.
The comparison of changes from baseline on PROs was analyzed using a mixed linear repeated measures model where treatment is a fixed effect variable and subject is a random effect variable. Stratification variables were included in the model as covariates as well as the interaction treatment visit. The least square means by treatment group with the corresponding 95% CI obtained from the mixed model were presented graphically. No adjustments for multiplicity were made.
Compliance with the planned assessment schedule was calculated at baseline and for each treatment cycle as the proportion of patients still receiving study treatment at this time point. No formal imputation for missing data was carried out and reasons for missing data were not centrally recorded. FACT-P total score was evaluable when >80% of questions were answered. For individual FACT-P subscales, a score was evaluable when >50% of the questions in the subscale domain were answered. If <50% of the questions were missing in any FACT-P subscale, the subscale score could be imputed by prorated subscale scores using the following formula: Prorated subscale score=[Sum of question scores]×[N of questions in subscale][…][N of questions answered].

[1] = cabazitaxel vs abiraterone or enzalutamide
[2] = cabazitaxel vs abiraterone or enzalutamide, all cycles
[3] = cabazitaxel vs abiraterone or enzalutamide, end of treatment visit

## CO[C@H]1C(=O)[C@]2(C)[C@@H](OC)C[C@H]3OC[C@@]3(OC(C)=O)[C@H]2[C@H](OC(=O)c2ccccc2)[C@]2(O)C[C@H](OC(=O)[C@H](O)[C@@H](NC(=O)OC(C)(C)C)c3ccccc3)C(C)=C1C2(C)C [Cabazitaxel, 4α-acetoxy-2α-benzoyloxy-5β,20-epoxy-1p-hydroxy-7β,10β-dimethoxy-9-oxo-11-taxen-13α-yl (2R,3S)-3-tert-butoxycarbonylamino-2-hydroxy-3-phenylpropionate]
  Deterioration in FACT-P from baseline: 22.2%
3 months
  Emotional well-being, Kaplan-Meier probability of no deterioration at 3 months: 91.1
  FACT-G total, Kaplan-Meier probability of no deterioration at 3 months: 82.3
  FACT-P total, Kaplan-Meier probability of no deterioration at 3 months: 86.2
  Functional well-being, Kaplan-Meier probability of no deterioration at 3 months: 73.7
  Pain-related subscale, Kaplan-Meier probability of no deterioration at 3 months: 81.6
  Physical well-being, Kaplan-Meier probability of no deterioration at 3 months: 76.0
  Prostate-specific concerns, Kaplan-Meier probability of no deterioration at 3 months: 83.6
  Social or family well-being, Kaplan-Meier probability of no deterioration at 3 months: 78.7
  Trial outcome index, Kaplan-Meier probability of no deterioration at 3 months: 86.1
Table 6
  FACT-P total, deterioration events: 29.6%
[1]
  Emotional well-being, time to deterioration HR: 0.46**
  FACT-G total, time to deterioration HR: 0.71
  FACT-P total, time to deterioration HR: 0.72
  Functional well-being, time to deterioration HR: 0.81
  Pain-related subscale, time to deterioration HR: 0.74
  Physical well-being, time to deterioration HR: 0.82
  Prostate-specific concerns, time to deterioration HR: 0.68
  Social or family well-being, time to deterioration HR: 1.03
  Trial outcome index, time to deterioration HR: 0.65
[2]
  Pain-related subscale score change from baseline, least squares mean difference: +1.12 to +2.26
  Social or family well-being change from baseline, mean difference: −0.37 to −2.25
[3]
  FACT-P total score change from baseline, mean difference: +4.58
  Pain-related subscale score change from baseline, mean difference: +0.62
  Social or family well-being change from baseline, mean difference: −0.94
Cabazitaxel vs abiraterone or enzalutamide, until Cycle 5
  FACT-P total score change from baseline, least squares mean difference: +2.67 to +5.21
human, in vivo
  Emotional well-being, deterioration events: 16.7%
  Emotional well-being, deterioration events n/nT: 18/108
  Emotional well-being, median time to deterioration: NE (NE-NE)
  FACT-G total, deterioration events: 27.8%
  FACT-G total, deterioration events n/nT: 30/108
  FACT-G total, median time to deterioration: 14.8 (8.8-NE) months
  FACT-P total, deterioration events n/nT: 32/108
  FACT-P total, median time to deterioration: 14.8 (6.3-NE) months
  Functional well-being, deterioration events: 36.1%
  Functional well-being, deterioration events n/nT: 39/108
  Functional well-being, median time to deterioration: NE (5.9-NE)
  Improvement in total FACT-P score from baseline: 25.0%
  Pain-related subscale, deterioration events: 33.3%
  Pain-related subscale, deterioration events n/nT: 36/108
  Pain-related subscale, median time to deterioration: 10.4 (8.5-NE) months
  Physical well-being, deterioration events: 36.1%
  Physical well-being, deterioration events n/nT: 39/108
  Physical well-being, median time to deterioration: 14.8 (4.9-NE) months
  Prostate-specific concerns, deterioration events: 32.4%
  Prostate-specific concerns, deterioration events n/nT: 35/108
  Prostate-specific concerns, median time to deterioration: 14.8 (9.8-NE) months
  Social or family well-being, deterioration events: 32.4%
  Social or family well-being, deterioration events n/nT: 35/108
  Social or family well-being, median time to deterioration: 14.8 (7.9-14.8) months
  Trial outcome index, deterioration events: 26.9%
  Trial outcome index, deterioration events n/nT: 29/108
  Trial outcome index, median time to deterioration: 14.8 (8.5-NE) months
human, in vivo, listed as cabazitaxel
  FACT-P total, median time to deterioration: 14.8 months
±10 points, confirmed
  Improvement in total FACT-P score from baseline: 27 patients
